Test results published in patent publication US11149013B2, “Crystal form of urate transporter 1 inhibitor and preparation method and use thereof” (Tianjin Institute of Pharmaceutical Research Co., Ltd., priority 2018, dated 2021).

How the values were obtained:
Type in all cases: physicochemical
[1] = Influencing factor test: stability to high humidity; conditions: high humidity 92.5% RH, open weighing bottle
Procedure: (§1) The HPLC conditions for the determination of the crystal form A of the compound TY706 and its raw material in the present invention were as follows: chromatographic column: C18, 5 μu, Φ4.6×150 mm, Waters Atlantis T3; mobile phase A: acetonitrile-methanol=9:1, mobile phase B: 10 mM diammonium hydrogen phosphate (pH was adjusted to 4.30±0.03 with phosphoric acid), gradient elution (Table 2); detection wavelength: 225 nm; column temperature: 35° C.; flow rate: 1.0 mL/min; sample concentration: 0.3 mg/mL; injection volume: 15 μL; solvent for dissolving: phosphate buffer (pH 7.8-8.0; prepared by dissolving 5.59 g of dipotassium hydrogen phosphate and 0.41 g of potassium dihydrogen phosphate by adding water to a volume of 1000 mL).
(§2) The sample of the crystal form A of TY706 prepared in Example 1 and the raw material for the preparation of the crystal form A were simultaneously subjected to influencing factor tests, and they were respectively placed under the conditions of illumination (5000 Lx·hr, with the weighing bottle being placed open), high heat (60° C., with the weighing bottle being placed open), and high humidity (92.5% RH, with the weighing bottle being placed open) for 14 days, and the appearance and the number and total amount of impurities (determined by HPLC) were compared with those measured on day 0, and the results are shown in Table 5-7.

[2] = Influencing factor test: stability to high heat; conditions: high heat 60° C., open weighing bottle
Procedure: as §1, §2

[3] = Influencing factor test: stability to light; conditions: illumination 5000 Lx·hr, open weighing bottle
Procedure: as §1, §2

O=C(O)CSc1nnc(Br)n1Cc1ccc(Br)c2ccccc12 [Crystal form A of TY706]
Appearance ([1]; day 0): White solid
Number of impurities ([1]; day 0, HPLC): 4
Total amount of impurities ([1]; day 0, HPLC): 0.24%
Appearance ([1]; day 7): White solid
Number of impurities ([1]; day 7, HPLC): 4
Total amount of impurities ([1]; day 7, HPLC): 0.24%
Appearance ([1]; day 14): White solid
Number of impurities ([1]; day 14, HPLC): 4
Total amount of impurities ([1]; day 14, HPLC): 0.25%
Appearance ([2]; day 0): White solid
Number of impurities ([2]; day 0, HPLC): 4
Total amount of impurities ([2]; day 0, HPLC): 0.24%
Appearance ([2]; day 7): White solid
Number of impurities ([2]; day 7, HPLC): 4
Total amount of impurities ([2]; day 7, HPLC): 0.25%
Appearance ([2]; day 14): White solid
Number of impurities ([2]; day 14, HPLC): 5
Total amount of impurities ([2]; day 14, HPLC): 0.26%
Appearance ([3]; day 0): White solid
Number of impurities ([3]; day 0, HPLC): 4
Total amount of impurities ([3]; day 0, HPLC): 0.24%
Appearance ([3]; day 7): White solid
Number of impurities ([3]; day 7, HPLC): 6
Total amount of impurities ([3]; day 7, HPLC): 0.28%
Appearance ([3]; day 14): White solid
Number of impurities ([3]; day 14, HPLC): 7
Total amount of impurities ([3]; day 14, HPLC): 0.41%

O=C(O)CSc1nnc(Br)n1Cc1ccc(Br)c2ccccc12 [TY706 raw material]
Appearance ([1]; day 0): White solid
Number of impurities ([1]; day 0, HPLC): 11
Total amount of impurities ([1]; day 0, HPLC): 0.69%
Appearance ([1]; day 7): White solid
Number of impurities ([1]; day 7, HPLC): 12
Total amount of impurities ([1]; day 7, HPLC): 0.72%
Appearance ([1]; day 14): White solid
Number of impurities ([1]; day 14, HPLC): 14
Total amount of impurities ([1]; day 14, HPLC): 0.84%
Appearance ([2]; day 0): White solid
Number of impurities ([2]; day 0, HPLC): 11
Total amount of impurities ([2]; day 0, HPLC): 0.69%
Appearance ([2]; day 7): White solid
Number of impurities ([2]; day 7, HPLC): 12
Total amount of impurities ([2]; day 7, HPLC): 0.78%
Appearance ([2]; day 14): White solid
Number of impurities ([2]; day 14, HPLC): 15
Total amount of impurities ([2]; day 14, HPLC): 1.19%
Appearance ([3]; day 0): White solid
Number of impurities ([3]; day 0, HPLC): 11
Total amount of impurities ([3]; day 0, HPLC): 0.69%
Appearance ([3]; day 7): White solid
Number of impurities ([3]; day 7, HPLC): 13
Total amount of impurities ([3]; day 7, HPLC): 1.13%
Appearance ([3]; day 14): Light yellow
Number of impurities ([3]; day 14, HPLC): 25
Total amount of impurities ([3]; day 14, HPLC): 2.68%
